Experimental data published in patent publication US20030125253A1, “Novel protein, process for producing the same and use therof” (priority 2002, published 2003).

How the values were obtained:
Format in all cases: cell-based, human
SSP1 mRNA in HepG2 cell = assay: Change of SSP1 mRNA expression in treated HepG2 cells (TaqMan PCR); details: 24 hours in serum free D-MEM medium with the agent, 25-OH 5 μg/ml, βVLDL 100 μg-TC/ml, HPβCD 5 mM, 10% FBS
Procedure: For conducting more detailed analysis of SSP1 expression, TaqMan PCR conditions were set. The primers used were Upper Primer (SEQ ID NO: 54) and Lower Primer (SEQ ID NO: 55), and the probe used for detection was shown by SEQ ID NO: 56. In TaqMan PCR, 250 nM of Upper Primer, 250 nM of Lower Primer, 75 nM of the probe and template DNA were mixed with TaqMan Universal Mixture, and SSP1 gene was quantified by real time PCR of 40 cycle of 15 seconds at 95° C. and 60 seconds at 60° C.
After HepG2 cell was treated as shown in FIG. 7 for one day, RNA was extracted to perform a reverse transcription using oligo-dT as a primer. Then, change in the expression amount of SSP1 mRNA was analyzed using the quantification system of expression amount of SSP1 mRNA as shown in Example 6. Specifically, HepG2 cells were cultured on a 24-well plate, and incubated for 24 hours in a serum free D-MEM medium in the presence of 10% FBS (10% FBS), 5 μg/ml of 25-hydroxycholesterol (25-OH), 100 μg-TC/ml of rabbit βVLDL (βVLDL), 1 μM of Atrvastatin (ATOS), 5 mM hydroxypropyl-β-cyclodextiin (HPβCD), 10 μM progesterone (Progesterone) or 100 μM dibutyl-cyclic AMP (db-cAMP). The expression amount of SSP1 mRNA in RNA extracted from these cells was measured as a rate (%) to GAPDH mRNA measured as the internal standard.

SSP2 mRNA in IMR-32 cell = assay: Differentiation-dependent induction of SSP2 mRNA expression in IMR-32 cells (TaqMan PCR); details: 10 μM BrDU, cultured for 14 days, RNA at 7 and 14 days, cells differentiated to neuron in morphology
Procedure: For conducting more detailed analysis of SSP2 expression, TaqMan PCR conditions were set. The primers used were Upper Primer (SEQ ID NO: 57) and Lower Primer (SEQ ID NO: 58), and the probe used for detection was shown by SEQ ID NO: 59. In TaqMan PCR, 250 nM of Upper Primer, 250 nM of Lower Primer, 75 nM of the probe and template DNA were mixed with TaqMan Universal Mixture, and SSP2 gene was quantified by real time PCR of 40 cycle of 15 seconds at 95° C. and 60 seconds at 60° C. IMR-32 cells were cultured overnight at […] cells/well (6 well plate), and cultured for 14 days under four different conditions of 1 mM dibutyl cycle AMP (db-cAMP), 10 μM Bromo deoxyuridine (BrDU), 1 mM db-cAMP/10 μM BrDU and no differentiation-inducing agent. RNA was extracted from cells at 7 days and 14 days, then, SSP2 mRNA was quantified by TaqMan PCR. Induction of expression of SSP2 mRNA was recognized in cells which were differentiated to neuron in terms of morphology by 10 μM BrDU (FIG. 8).

[1] = test system: stable SSP1-overexpressing HepG2 cell; assay: ApoB lipoprotein secretion in stable SSP1-overexpressing HepG2 cells (sandwich EIA); details: SSP1 stable expression HepG2 cell strains vs parent HepG2, 24 hours, 5% LPDS + oleate (BSA complex)
Procedure: SSP1 gene was subcloned into pcDNA3.1(+)-myc vector (Invitrogen), and the thus obtained expression plasmid for eucaryotic cell having the C-terminal Myc-tag was transfected into HepG2 cells by a lipofection method, and these cells were cultured in the presence of 500 ug/ml G418 to obtain G418-resistant strains. From these strains, 4 stable cell strains highly expressing SSP1 mRNA were obtained using the quantification, of expression amount of SSP1 mRNA by TaqMan PCR. A gene encoding amino acid no. 33-273 of SSP1 protein was subcloned into pET 21(+) vector (Novagen), and using the SSP1 partial protein produced in Escherichia coli as an antigen, a polyclonal antibody was prepared according to an ordinary method. The amino acid sequence of the antigen protein is shown by SEQ ID NO: (antigen AP-1). Using this antibody (AP-1), the expression of SSP1 protein in cell-extract of the four stable SSP1-expressing cell strains was investigated by a Western blotting method. […] For quantification of ApoB lipoprotein, a sandwich EIA method using an anti-human apoB goat polyclonal antibody and an anti-human apoB mouse monoclonal antibody was carried out. In the quantification, human LDL was used as a standard substance, and the concentration of ApoB lipoprotein secreted in the supernatant was represented as an equivalent human LDL value. […]

Compound | change in the expression amount of SSP1 mRNA (rate to GAPDH mRNA) (SSP1 mRNA in HepG2 cell) | other results
C[C@H](CCCC(C)(C)O)[C@H]1CC[C@H]2[C@@H]3CC=C4C[C@@H](O)CC[C@]4(C)[C@H]3CC[C@]12C [25OH, 25-hydroxycholesterol] | decrease | –
O=c1[nH]c(=O)n([C@H]2C[C@H](O)[C@@H](CO)O2)cc1Br [BrDU, Bromo deoxyuridine] | – | induction of expression of SSP2 mRNA (SSP2 mRNA in IMR-32 cell): Induction
CCCCCCCC/C=C\CCCCCCCC(=O)O [oleic acid] | – | activity to promote apoB lipoprotein secretion by addition of oleic acid [1]: disappeared
hydroxypropyl-β-cyclodextiin [HPβCD] | increase | –
